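Compound exposure: 48 hours, 5 concentrations, 96-well plates. The concentration for 50% growth inhibition is given as GI50.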 Calls of active or inactive are those of the source. No stated cut-off is given here; in the data, active = GI50 up to about 1.1 µM and inactive = higher.
Columns and labels:
Assay in all cases: DTP human tumour cell line panel, 48 h
NCI-H23 = system: NCI-H23
MCF7 = system: MCF7
RPMI-8226 = system: RPMI-8226
SR = system: SR
MOLT-4 = system: MOLT-4
IGROV-1 = system: IGROV-1
UACC-62 = system: UACC-62
OVCAR-3 = system: OVCAR-3
NCI/ADR-RES = system: NCI/ADR-RES
U-251 = system: U-251
HOP-62 = system: HOP-62
HCT-15 = system: HCT-15
KM12 = system: KM12
ACHN = system: ACHN
HCT-116 = system: HCT-116
MDA-N = system: MDA-N
SN12C = system: SN12C
Malme-3M = system: Malme-3M
PC-3 = system: PC-3
SF-268 = system: SF-268
K562 = system: K562
OVCAR-5 = system: OVCAR-5
OVCAR-4 = system: OVCAR-4
SK-OV-3 = system: SK-OV-3
SW-620 = system: SW-620
T47D = system: T47D
DU-145 = system: DU-145
CAKI-1 = system: CAKI-1
HL-60 = system: HL-60
NCI-H460 = system: NCI-H460
EKVX = system: EKVX
NCI-H522 = system: NCI-H522
LOX IMVI = system: LOX IMVI
SK-MEL-28 = system: SK-MEL-28
OVCAR-8 = system: OVCAR-8
BT-549 = system: BT-549
SF-295 = system: SF-295
A498 = system: A498
UACC-257 = system: UACC-257
SK-MEL-2 = system: SK-MEL-2
MDA-MB-435 = system: MDA-MB-435
SK-MEL-5 = system: SK-MEL-5
SF-539 = system: SF-539
786-0 = system: 786-0
CCRF-CEM = system: CCRF-CEM
HCC 2998 = system: HCC 2998
COLO 205 = system: COLO 205
HT-29 = system: HT-29
M14 = system: M14
UO-31 = system: UO-31
SNB-75 = system: SNB-75
MDA-MB-231 = system: MDA-MB-231
TK-10 = system: TK-10
HOP-92 = system: HOP-92
A549 = system: A549
Hs-578T = system: Hs-578T
SNB-19 = system: SNB-19
NCI-H226 = system: NCI-H226
RXF 393 = system: RXF 393

In the case of `O=C(Nc1ccc(F)cc1)c1cc2ccc(O)cc2o/c1=N\c1cccc(F)c1`, the GI50 (NCI-H23) is reported as 19.9 µM (inactive), the GI50 (MCF7) is reported as 32.8 µM (inactive) and the GI50 (RPMI-8226) is reported as 14.8 µM (inactive). For the same molecule, the GI50 (SR) was 33.3 µM (inactive), the GI50 (MOLT-4) was 27.9 µM (inactive) and the GI50 (IGROV-1) was 18.9 µM (inactive). For the same molecule, the GI50 (UACC-62) was 42.8 µM (inactive), the GI50 (OVCAR-3) was 38.3 µM (inactive) and the GI50 (NCI/ADR-RES) was 28.2 µM (inactive). For the same molecule, the GI50 (U-251) was 28.7 µM (inactive), the GI50 (HOP-62) was 42.5 µM (inactive) and the GI50 (HCT-15) was 27.5 µM. The GI50 (KM12) was 29.9 µM (inactive), the GI50 (ACHN) was 32.8 µM (inactive) and the GI50 (HCT-116) was 35.4 µM (inactive). The GI50 (MDA-N) was 38.8 µM (inactive), the GI50 (SN12C) was 38.9 µM (inactive) and the GI50 (Malme-3M) was 20.2 µM (inactive). The GI50 (PC-3) was 33 µM (inactive), the GI50 (SF-268) was 43.1 µM (inactive) and the GI50 (K562) was 22 µM (inactive). For the same molecule, the GI50 (OVCAR-5) was > 100 µM (inactive), the GI50 (OVCAR-4) was 26 µM (inactive) and the GI50 (SK-OV-3) was 51.6 µM (inactive). For the same molecule, the GI50 (SW-620) was 41.5 µM (inactive), the GI50 (T47D) was 31.5 µM (inactive) and the GI50 (DU-145) was 28.9 µM (inactive). For the same molecule, the GI50 (CAKI-1) was 32.7 µM (inactive), the GI50 (HL-60) was 27.3 µM (inactive) and the GI50 (NCI-H460) was 31.7 µM (inactive). For the same molecule, the GI50 (EKVX) was 22.9 µM (inactive), the GI50 (NCI-H522) was 16.4 µM (inactive) and the GI50 (LOX IMVI) was 25.4 µM (inactive). The GI50 (SK-MEL-28) was 45.7 µM (inactive), the GI50 (OVCAR-8) was 18.4 µM (inactive) and the GI50 (BT-549) was 30.6 µM (inactive). The GI50 (SF-295) was 43.9 µM (inactive), the GI50 (A498) was 43 µM (inactive) and the GI50 (UACC-257) was 33.5 µM (inactive). The GI50 (SK-MEL-2) was 42.2 µM (inactive), the GI50 (MDA-MB-435) was 31.8 µM (inactive) and the GI50 (SK-MEL-5) was 16.1 µM (inactive). For the same molecule, the GI50 (SF-539) was 52.7 µM (inactive), the GI50 (786-0) was 39.9 µM (inactive) and the GI50 (CCRF-CEM) was 15.2 µM (inactive). For the same molecule, the GI50 (HCC 2998) was 55.6 µM (inactive), the GI50 (COLO 205) was > 100 µM (inactive) and the GI50 (HT-29) was > 100 µM (inactive).

With `C[C@]12CC[C@@H]3c4ccc(OS(N)(=O)=O)cc4CC[C@H]3[C@@H]1CCC2=O` [EMATE] the GI50 (NCI-H23) was 37.8 µM (inactive), the GI50 (MCF7) was 36.5 µM (inactive) and the GI50 (RPMI-8226) was 31.1 µM (inactive). The GI50 (M14) was 38.9 µM (inactive), the GI50 (UO-31) was 38.7 µM (inactive) and the GI50 (IGROV-1) was 28.7 µM (inactive). The GI50 (SNB-75) was 42.4 µM (inactive), the GI50 (UACC-62) was 37.6 µM (inactive) and the GI50 (OVCAR-3) was 64 µM (inactive). For the same molecule, the GI50 (NCI/ADR-RES) was 26.6 µM (inactive), the GI50 (MDA-MB-231) was 94 µM (inactive) and the GI50 (U-251) was 46.2 µM (inactive). The GI50 (HOP-62) was 55.2 µM (inactive), the GI50 (HCT-15) was 38 µM and the GI50 (KM12) was 30.5 µM (inactive). The GI50 (ACHN) was 84.9 µM (inactive), the GI50 (TK-10) was 59.6 µM (inactive) and the GI50 (HOP-92) was > 100 µM (inactive). The GI50 (HCT-116) was 30.2 µM (inactive), the GI50 (MDA-N) was 31.6 µM (inactive) and the GI50 (SN12C) was 81.3 µM (inactive). The GI50 (Malme-3M) was 45.6 µM (inactive), the GI50 (SF-268) was 32.9 µM (inactive) and the GI50 (K562) was 24.7 µM (inactive). For the same molecule, the GI50 (OVCAR-5) was > 100 µM (inactive), the GI50 (A549) was 35 µM (inactive) and the GI50 (OVCAR-4) was 57.7 µM (inactive). The GI50 (SK-OV-3) was > 100 µM (inactive), the GI50 (SW-620) was 44.6 µM (inactive) and the GI50 (T47D) was 29 µM (inactive). The GI50 (DU-145) was 42.7 µM (inactive), the GI50 (Hs-578T) was 10.5 µM (inactive) and the GI50 (SNB-19) was 73.3 µM (inactive). The GI50 (CAKI-1) was > 100 µM (inactive), the GI50 (HL-60) was 33 µM (inactive) and the GI50 (NCI-H460) was 31.6 µM (inactive). The GI50 (EKVX) was 5.07 µM (inactive), the GI50 (LOX IMVI) was 75.9 µM (inactive) and the GI50 (SK-MEL-28) was 95.1 µM (inactive). For the same molecule, the GI50 (OVCAR-8) was 53 µM (inactive), the GI50 (BT-549) was 45 µM (inactive) and the GI50 (SF-295) was 36.4 µM (inactive). The GI50 (A498) was 97.1 µM (inactive), the GI50 (UACC-257) was 32.4 µM (inactive) and the GI50 (SK-MEL-2) was 37.5 µM (inactive). For the same molecule, the GI50 (MDA-MB-435) was 39.4 µM (inactive), the GI50 (NCI-H226) was 49.3 µM (inactive) and the GI50 (SK-MEL-5) was 13.5 µM (inactive). The GI50 (SF-539) was 52.2 µM (inactive), the GI50 (786-0) was 53.3 µM (inactive) and the GI50 (CCRF-CEM) was 39 µM (inactive). For the same molecule, the GI50 (HCC 2998) was 49.2 µM (inactive), the GI50 (RXF 393) was 63.4 µM (inactive) and the GI50 (COLO 205) was 38.7 µM (inactive). For the same molecule, the GI50 (HT-29) was 30.1 µM (inactive).

For `O=C1C(CO)=C[C@@H](O)[C@H]2O[C@@H]12` [EPOXYDON], the GI50 (NCI-H23) was 65.6 µM (inactive), the GI50 (MCF7) was 21.7 µM (inactive) and the GI50 (RPMI-8226) was 33.3 µM (inactive). For the same molecule, the GI50 (M14) was > 100 µM (inactive), the GI50 (UO-31) was > 100 µM (inactive) and the GI50 (SR) was > 100 µM (inactive). The GI50 (MOLT-4) was > 100 µM (inactive), the GI50 (IGROV-1) was > 100 µM (inactive) and the GI50 (SNB-75) was 37.4 µM (inactive). For the same molecule, the GI50 (UACC-62) was > 100 µM (inactive), the GI50 (OVCAR-3) was > 100 µM (inactive) and the GI50 (NCI/ADR-RES) was 75.5 µM (inactive). The GI50 (MDA-MB-231) was > 100 µM (inactive), the GI50 (U-251) was 61.5 µM (inactive) and the GI50 (HOP-62) was > 100 µM (inactive). For the same molecule, the GI50 (HCT-15) was > 100 µM, the GI50 (KM12) was > 100 µM (inactive) and the GI50 (ACHN) was 90.2 µM (inactive). For the same molecule, the GI50 (HOP-92) was > 100 µM (inactive), the GI50 (HCT-116) was 31.1 µM (inactive) and the GI50 (MDA-N) was > 100 µM (inactive). The GI50 (SN12C) was 18.4 µM (inactive), the GI50 (Malme-3M) was > 100 µM (inactive) and the GI50 (SF-268) was > 100 µM (inactive). The GI50 (K562) was > 100 µM (inactive), the GI50 (OVCAR-5) was > 100 µM (inactive) and the GI50 (A549) was 77.3 µM (inactive). For the same molecule, the GI50 (OVCAR-4) was 17.7 µM (inactive), the GI50 (SK-OV-3) was > 100 µM (inactive) and the GI50 (SW-620) was 37.9 µM (inactive). The GI50 (T47D) was > 100 µM (inactive), the GI50 (DU-145) was > 100 µM (inactive) and the GI50 (Hs-578T) was > 100 µM (inactive). The GI50 (CAKI-1) was > 100 µM (inactive), the GI50 (HL-60) was 26 µM (inactive) and the GI50 (NCI-H460) was 53.1 µM (inactive). For the same molecule, the GI50 (EKVX) was > 100 µM (inactive), the GI50 (NCI-H522) was > 100 µM (inactive) and the GI50 (LOX IMVI) was 23.1 µM (inactive). The GI50 (SK-MEL-28) was > 100 µM (inactive), the GI50 (OVCAR-8) was > 100 µM (inactive) and the GI50 (BT-549) was 98.9 µM (inactive). For the same molecule, the GI50 (SF-295) was > 100 µM (inactive), the GI50 (A498) was > 100 µM (inactive) and the GI50 (SK-MEL-2) was > 100 µM (inactive). The GI50 (MDA-MB-435) was 25.2 µM (inactive), the GI50 (NCI-H226) was > 100 µM (inactive) and the GI50 (SK-MEL-5) was > 100 µM (inactive). The GI50 (786-0) was 39.8 µM (inactive), the GI50 (CCRF-CEM) was 30.7 µM (inactive) and the GI50 (COLO 205) was > 100 µM (inactive). For the same molecule, the GI50 (HT-29) was > 100 µM (inactive).
